Test results taken from US20200140821A1, “EX VIVO MEAT PRODUCTION” (WILD TYPE, INC., priority 2017, published 2020).
Entries after “also recorded” stand apart in the source; their conditions may differ.

Test system: duck hepatocytes
Assay: Induction of steatosis in cultured duck hepatocytes by incubation with fatty acid
Type: cell-based

## CCCCC/C=C\C/C=C\CCCCCCCC(=O)O [linoleic acid]
0, 0.1, 0.25, 0.5, 1, 2 μm, FIG. 16B
  dose response: percentage of hepatocytes with steatosis versus concentration: corresponding increase in the percentage of hepatocytes with steatosis
2 μM linoleic acid, FIG. 16B
  percentage of steatotic hepatocytes: above 85%
2 μM, compared to untreated control, FIG. 16A
  induction of steatosis (accumulation of intracellular lipid-containing vesicles): successful induction of steatosis; also recorded: successfully induced to undergo steatosis
